Results on two compounds are retold here after ChEMBL document CHEMBL1131715 (Bioorg Med Chem Lett, 1999).

A short description of the assay: Inhibitory activity against zinc-dependent Glutamate Carboxypeptidase G.

The Ki is the equilibrium dissociation constant of an inhibitor or competing ligand from its target. A higher Ki goes with lower affinity.

For `O=C(O)CC[C@H](NP(O)(=S)c1ccccc1)C(=O)O` (some centres not stated), the Ki amounted to 3240 nM. For the compound `CCCCP(O)(=S)N[C@@H](CCC(=O)O)C(=O)O` (some centres not stated), the Ki was 264 nM.
